Results on three molecules are retold here after ChEMBL document CHEMBL1649450, “In vitro activity of micafungin against planktonic and sessile Candida albicans isolates” (2009).

Structures are written as SMILES. In brackets after ≈: the same amount, converted by molar mass. *1 amine or outer side, *2 acyl side, *3 side chain or, on linkers, in order; H or OH if unused. Where a SMILES comes first, the peptide text is derived from it. Bridges are numbered along the chain shown (N, C = ends). [ ]: non-standard residue; d: D form. The star is where a group is joined. hTyr(3S-OH,4S-OH,3'-OSO3H) = N[C@H](C(=O)O)[C@H](O)[C@@H](O)c1ccc(O)c(OS(=O)(=O)O)c1; pTerphenylCO(4''-OnC5H11) = CCCCCOc1ccc(-c2ccc(-c3ccc(C(=O)*)cc3)cc2)cc1; Orn(4R-OH,5R-OH) = O=C([C@H](C[C@@H](O)[C@@H](O)N[*:3])N[*:1])[*:2]; hTyr(3S-OH,4S-OH) = N[C@H](C(=O)O)[C@H](O)[C@@H](O)c1ccc(O)cc1; Pro(3S-OH,4S-Me) = C[C@H]1CN[C@H](C(=O)O)[C@H]1O; X1 = CCCCCOc1ccc(-c2cc(-c3ccc(C(=O)*)cc3)no2)cc1; Gln(3R-OH) = NC(=O)C[C@@H](O)[C@H](N)C(=O)O; Hyp = O=C(O)[C@@H]1C[C@@H](O)CN1

Type in all cases: functional
Assay [1] has as its system Candida albicans. Kind of assay: Antimicrobial activity against Candida albicans clinical isolate biofilm by broth microdilution method.
Assay [2] has as its system Candida albicans. Kind of assay: Antimicrobial activity against Candida albicans clinical isolate sessile cells by microtiter plated based assay.
For assay [3], the system named is Candida albicans. Nature of the assay: Antimicrobial activity against Candida albicans GDH 2346 sessile cells by microtiter plated based assay.
Assay [4] relates to Candida albicans. Nature of the assay: Antimicrobial activity against Candida albicans clinical isolates planktonic cells by broth microdilution method.
The test system of assay [5] is Candida albicans. Nature of the assay: Antimicrobial activity against Candida albicans GDH 2346 planktonic cells by broth microdilution method.

The molecule `CC[C@H](C)C[C@H](C)CCCCCCCCC(=O)N[C@H]1C[C@@H](O)[C@@H](NCCN)NC(=O)[C@@H]2[C@@H](O)CCN2C(=O)[C@H]([C@H](O)CCN)NC(=O)[C@H]([C@H](O)[C@@H](O)c2ccc(O)cc2)NC(=O)[C@@H]2C[C@@H](O)CN2C(=O)[C@H]([C@@H](C)O)NC1=O` [CASPOFUNGIN] displayed an MIC90 in the assay with Candida albicans [1] of 2 mg/L (≈ 1.83 µM).

`CCCCCOc1ccc(-c2ccc(-c3ccc(C(=O)N[C@H]4C[C@@H](O)[C@@H](O)NC(=O)[C@@H]5[C@@H](O)[C@@H](C)CN5C(=O)[C@H]([C@@H](C)O)NC(=O)[C@H]([C@H](O)[C@@H](O)c5ccc(O)cc5)NC(=O)[C@@H]5C[C@@H](O)CN5C(=O)[C@H]([C@@H](C)O)NC4=O)cc3)cc2)cc1` [ANIDULAFUNGIN] ({pTerphenylCO(4''-OnC5H11)}-[Orn(4R-OH,5R-OH)]T[Hyp][hTyr(3S-OH,4S-OH)]T[Pro(3S-OH,4S-Me)]; lactam 1-C) showed an MIC90 against Candida albicans [1] not above 0.03 mg/L.

Turning to `CCCCCOc1ccc(-c2cc(-c3ccc(C(=O)N[C@H]4C[C@@H](O)[C@@H](O)NC(=O)[C@@H]5[C@@H](O)[C@@H](C)CN5C(=O)[C@H]([C@H](O)CC(N)=O)NC(=O)[C@H]([C@H](O)[C@@H](O)c5ccc(O)c(OS(=O)(=O)O)c5)NC(=O)[C@@H]5C[C@@H](O)CN5C(=O)[C@H]([C@@H](C)O)NC4=O)cc3)no2)cc1` [MICAFUNGIN] (X1-[Orn(4R-OH,5R-OH)]T[Hyp][hTyr(3S-OH,4S-OH,3'-OSO3H)][Gln(3R-OH)][Pro(3S-OH,4S-Me)]; lactam 1-C), the MIC50 was found to be 0.5 mg/L (≈ 0.394 µM) against Candida albicans [2] and 0.125 mg/L (≈ 0.0984 µM) against Candida albicans [4]. In addition, the figures for the MIC90 in the assay with Candida albicans [2] and with Candida albicans [4] were 0.5 mg/L (≈ 0.394 µM) and 0.125 mg/L (≈ 0.0984 µM), respectively. The results for the MIC with Candida albicans [3] and against Candida albicans [5] were 0.53 mg/L (≈ 0.417 µM) and 0.06 mg/L (≈ 0.0472 µM), respectively.
